Assay [1] has as its system Langerhans cells freshly isolated from human skin. The assay is described as follows: Migration of Langerhans cells freshly isolated from human skin, activated by DNSB (two-compartment Matrigel chamber). It is filed as cell-based. On the procedure: Epidermal cell suspensions were obtained by enzymatic treatment (0.05% trypsine for 18 h at +4° C.) of fragments of normal human skin taken from plastic surgery. The suspensions obtained contain an average of 2 to 4% of LC. Obtaining suspensions containing an average of 70% of LC is based on the principle of centrifuging on density gradient (Lymphoprep™) and elimination of keratinocytes.
The basic medium chosen for the entire study was PRMI 1640 (Gibco BRL, France). The AK100 molecule supplied by Pharmascience, with a concentration of 10^−2 M in solution in DMSO (Dimethyl Sulfoxide) was diluted in RPMI-1640 and tested at 1 μM.
The sensitising agent was DNSB (Sigma Aldrich), a soluble form of DNCB (dinitro-chloro-benzene) solubilised in RPMI-BSA and used at a concentration of 50 μM.
A culture chamber system with two compartments (Falcon, Becton Dickinson, France) was used. The upper compartment is separated from the lower compartment by a membrane with 8 μm porosity, on which 50 μg/cm^2 Matrigel was deposited. […] After 18 h incubation at 37° C., the number of living cells that passed through the Matrigel and that are located in the lower compartment is counted under a microscope (the LCs are easily identifiable by their dendritic form). […]

The test system of assay [2] is dendritic cells generated in vitro from CD34+ precursors derived from blood from the umbilical cord. The assay is described as follows: Migration of dendritic cells generated in vitro from CD34+ precursors of umbilical cord blood, activated by hapten BB. It is filed as cell-based, human. The following applies: for Percentage of dendritic cells generated in vitro that migrated: BB + AK100 1 μM; for inhibition at 1 µM: Homo sapiens, Dendritic cell. On the procedure: Mononucleated cells were obtained from blood from the umbilical cord of healthy donors by centrifuging on Ficoll. The CD34+ cells were then purified by immunoselection using a specific antibody and magnetic balls (Miltenyi Biotech, Germany). The CD34+ cells were cultivated in the presence of GM-CSF (100 ng/ml), TNF-α (2.5 ng/ml) in RPMI to which 10% calf foetus serum was added for 5 days. TGF-β1, a factor that encourages differentiation of cells to the Langerhans cells […], was added on the 5th day of culture.
Cells were treated by hapten BB on the 7th day (Brandowski base, 1.17 μg/ml) for 24 h, and were then subjected to the migration test.
The results represent the percentage of cells that migrated in the presence of the different tested products. The percentage is calculated by taking the ratio of the number of cells recovered in the lower compartment of the migration chamber, to the number of cells subjected to migration. AK100 inhibits the migration of dendritic cells by 51 and 25% in experiments 1 and 2 respectively.

In assay [3] the test system is dendritic cells. The assay is described as follows: Migration of dendritic cells to draining ganglions in mouse sensitised by FITC hapten (AK100 ± LU105, Example 4). It is filed as in vivo. From the text:
FITC (Fluoresceine isothiocyanate, Sigma, St Louis, Mo.) was extemporaneously diluted in an acetone mix (dibutylphthalate (1:1)).
Alkanolamide AK100 and LU105 (LU 105 is an MMP inhibitor, corresponding to a peptide extract of white lupin marketed by the Expanscience Company under the brand name Actimp (193®) were supplied by “Laboratoires Expanscience” and formulated alone or association with each other in an inert vehicle compatible with a topical application (alkanolamide AK100 (0.1%)± LU105 (2%)). The different formulations were applied on the ears of mice twice per day for 4 consecutive days. 1.5% of FITC was applied on both ears (one treated and the other not treated (Control)) three hours after the last application.
The effect of the two molecules was evaluated in vivo in the mouse. 1.5% FITC (2×5 μl) was applied on the skin of both ears. […] The cells were then centrifuged for 10 minutes at 600×g (m×s^−2) on a metrizamide gradient (14.5% in RPMI 1640; 7.5% SVF) The interface cells were retrieved, rinsed and then marked with an anti-CDS86 PE-conjugated, biot-MHC CLII mAbs AC plus streptavidine-Cya (PharMingen) and analysed by flux cytometry. Only the FITC^+, PE^+ and Cya^+ cells are counted since they represent the population of cells that migrated from the skin to GLs following the application of hapten.

For assay [4], the system named is dendritic cells. Nature of the assay: Migration of dendritic cells to draining ganglions in mouse sensitised by FITC hapten (AK100 ± OX100, Example 5). The note with it: for Migration inhibition in %: FITC. It is filed as in vivo. As to the method:
FITC (Fluoresceine isothiocyanate, Sigma, St. Louis, Mo.) was diluted extemporaneously in a mixture of acetone and dibutylphthalate (1:1).
Alkanolamide AK100 and OX100 (described above) were supplied by “Laboratoires Expanscience” and formulated alone or in association in an inert vehicle compatible with a topical application [AK100 (0.05%)±OX100 (0.05%)]. The different formulations were applied on the ears of mice twice per day for 4 consecutive days. Three hours after the last application, 1.5% of FITC was applied on both ears (one treated and the other not treated (Control)).
The effect of the two molecules was evaluated in vivo in the mouse. 1.5% FITC (2×5 μl) was applied on the skin of both ears. 24 h later, the mice were sacrificed and a cellular suspension was prepared from auricular and cervical ganglions (draining ganglions, hereinafter denoted GL) or from the poplital ganglions (non-draining ganglions, negative control). The tissues were cut and cells separated by filtration (100 μm filter, Falcon; Becton Dickinson) and then washed. The cells were then centrifuged for 10 minutes at 600×g (m×s^−2) on a metrizamide gradient (14.5% in RPMI 1640; 7.5% SVF). The interface cells were retrieved, rinsed and then marked with an anti-CDS86 PE-conjugated, biot-MHC CLII mAbs AC plus streptavidine-Cya (PharMingen) and analysed by flux cytometry. Only the FITC^+, PE^+ and Cya^+ cells are counted since they represent the population of cells that migrated from the skin to GLs following the application of hapten.

Where [5] appears, read: mice sensitised by FITC hapten, topical.

Each structure is given as a SMILES string.

A word on the inhibition: it is the drop in the measured response relative to a control, in per cent. Low values mean a weak effect, high ones a strong effect. Consider `CCCCCCCCCCCC(=O)NC(C)(C)CO` [AK100], for which the “Inhibition of migration of LCs induced by DNSB” value in assay [1] (1 μM) is “significantly inhibits”. For the same compound, the LC migration index in assay [1] (DNSB 50 μM + AK100 1 μM, 18 h, control cells set to 1, DNSB alone 2.55) is on record as 1.11. Besides, the “Inhibition of migration of dendritic cells activated by hapten BB” value in assay [2] (1 μM) is reported as “significantly inhibits”. In addition, the “Percentage of dendritic cells generated in vitro that migrated” value in assay [2] (Experiment 1, BB alone 17) came out at 8.4%; in assay [2] (Experiment 2, BB alone 24), 18%. In addition, the inhibition at 1 µM is 51% in assay [2] (Experiment 1, 1 μM) and 25% in assay [2] (Experiment 2, 1 μM). Also, the “Migration inhibition in %” value in the assay on dendritic cells [3] (0.1% topical on ears twice per day for 4 days, FITC) was 30%; in the assay on dendritic cells [4] (AK100 0.05% topical on ears twice per day for 4 days), 15%. For the same compound, the “Inhibition of migration of DCs to LGs” value in the assay on dendritic cells [3] (setting [5]) and in the assay with dendritic cells [4] (setting [5]) was “significantly inhibits” each time.

On to `CCCCCCCCCCCC1=NC(C)(C)CO1` [OX100, 2-undecyl-4,4-dimethyl-1,3-oxazoline], for which the “Migration inhibition in %” value in the assay on dendritic cells [4] (OX100 0.05% topical on ears twice per day for 4 days) came out at 15%.

These data come from patent US8304453B2, “Composition comprising at least one alkanolamide to inhibit migration of langerhans cells and uses therof” (Laboratoires Expanscience, priority 2001, dated 2012).
